In article PMC7024302, “Ultrashort Cationic Lipopeptides–Effect of N-Terminal Amino Acid and Fatty Acid Type on Antimicrobial Activity and Hemolysis” (Molecules, 2020):
≈ marks a conversion by molar mass, not a printed value. Residues, ends and D or L forms follow the SMILES beside them.

Legend:
[1] = Determination of peptide hydrophobicity with RP-HPLC (adjusted retention time); format: physicochemical; settings: RP-HPLC C18, linear 10–55% acetonitrile over 60 min, 0.1% TFA, 25.0 °C, UV 214 nm, triplicate; for tR’: Table 3, adjusted retention time as hydrophobicity; for Adjusted retention time: Table 2, nC = carbon atoms in fatty acid chain
Outline: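 Peptides at 1 g/L in water with 0.1% TFA run on a C18 column (3.0 × 100 mm, 5 µm). Elution with a linear 10–55% acetonitrile gradient over 60 min, 0.1% TFA in both eluents, 0.5 mL/min, 25.0 ± 0.1 °C. Detection at 214 nm, in triplicate.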

[2] = tested on: S. aureus ATCC 25923; format: cell-based, Staphylococcus aureus; settings: ATCC 25923, 18 h
Outline: (§1)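 Lipopeptides, tested from 0.5 to 256 µg/mL, were incubated with bacteria (5 × 10^5 CFU/mL, MHB) for 18 h at 37 °C following CLSI guidance. Triplicate determinations gave the MIC as the lowest growth-inhibiting concentration.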

[3] = tested on: S. aureus ATCC 33591 (MRSA); format: cell-based, Staphylococcus aureus; settings: ATCC 33591, 18 h
Outline: as §1

[4] = tested on: P. aeruginosa ATCC 9027; format: cell-based, Pseudomonas aeruginosa; settings: ATCC 9027, 18 h
Outline: as §1

[5] = tested on: C. albicans ATCC 10231; format: cell-based, Candida albicans; settings: ATCC 10231, 24 h, pH 7
[6] = tested on: human red blood cells (hRBCs); format: cell-based; settings: red cells of human, 1 h
Outline: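 Fresh EDTA-anticoagulated human RBCs, PBS-washed, at 4% (v/v) final were exposed to lipopeptides at 0.5–256 µg/mL for 1 h at 37 °C. Released haemoglobin in supernatant read at 540 nm; PBS as 0% and 1% Triton X-100 as 100% haemolysis. Triplicates.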

[7] = tested on: E. faecium ATCC 700221; format: cell-based, Enterococcus faecium; settings: ATCC 700221, 18 h
Outline: as §1

[8] = tested on: K. pneumoniae ATCC 700603; format: cell-based, Klebsiella pneumoniae; settings: ATCC 700603, 18 h
Outline: as §1

[9] = tested on: A. baumannii ATCC BAA-1605; format: cell-based, Acinetobacter baumannii; settings: ATCC BAA-1605, 18 h
Outline: as §1

[10] = tested on: K. aerogenes ATCC 13048; format: cell-based, Klebsiella aerogenes; settings: ATCC 13048, 18 h
Outline: as §1

tR’ [1]	MIC SA [2]	MIC S [3]	MIC PA [4]	MIC CA [5]	HC50 [6]	MIC E1 [7]	MIC K [8]	MIC A [9]	MIC E2 [10]	Adjusted retention time [1]	Compound
44.69 min	4 µg/mL (≈ 5.96 µM)	8 µg/mL (≈ 11.9 µM)	8 µg/mL (≈ 11.9 µM)	4 µg/mL (≈ 5.96 µM)	35.11 (±0.90) µg/mL	8 µg/mL (≈ 11.9 µM)	128 µg/mL (≈ 191 µM)	32 µg/mL (≈ 47.7 µM)	128 µg/mL (≈ 191 µM)		CCCCCCCCCCCCCC(=O)N[C@@H](CCSC)C(=O)N[C@@H](CCCNC(=N)N)C(=O)N[C@@H](CCCNC(=N)N)C(N)=O [compound 50, C14-MRR-NH2] (HELM PEPTIDE1{[CCCCCCCCCCCCCC(=O)[*:2]].M.R.R.[am]}$$$$V2.0)
37.17 min	16 µg/mL (≈ 26.2 µM)	16 µg/mL (≈ 26.2 µM)	32 µg/mL (≈ 52.4 µM)	32 µg/mL (≈ 52.4 µM)	246.30 (±14.12) µg/mL	16 µg/mL (≈ 26.2 µM)	>256 (-) µg/mL	128 µg/mL (≈ 210 µM)	256 µg/mL (≈ 419 µM)		CCCCCCCCCCCC(=O)N[C@H](C(=O)N[C@@H](CCCNC(=N)N)C(=O)N[C@@H](CCCNC(=N)N)C(N)=O)C(C)C [compound 93, C12-VRR-NH2] (HELM PEPTIDE1{[CCCCCCCCCCCC(=O)[*:2]].V.R.R.[am]}$$$$V2.0)
44.02 min	4 µg/mL (≈ 6.26 µM)	4 µg/mL (≈ 6.26 µM)	8 µg/mL (≈ 12.5 µM)	8 µg/mL (≈ 12.5 µM)	30.73 (±0.41) µg/mL	16 µg/mL (≈ 25 µM)	128 µg/mL (≈ 200 µM)	32 µg/mL (≈ 50.1 µM)	128 µg/mL (≈ 200 µM)		CCCCCCCCCCCCCC(=O)N[C@H](C(=O)N[C@@H](CCCNC(=N)N)C(=O)N[C@@H](CCCNC(=N)N)C(N)=O)C(C)C [compound 94, C14-VRR-NH2] (HELM PEPTIDE1{[CCCCCCCCCCCCCC(=O)[*:2]].V.R.R.[am]}$$$$V2.0)
39.05 min	8 µg/mL (≈ 12.8 µM)	8 µg/mL (≈ 12.8 µM)	16 µg/mL (≈ 25.6 µM)	16 µg/mL (≈ 25.6 µM)	120.40 (±1.55) µg/mL	8 µg/mL (≈ 12.8 µM)	256 µg/mL (≈ 410 µM)	64 µg/mL (≈ 102 µM)	256 µg/mL (≈ 410 µM)	39.047 min	CCCCCCCCCCCC(=O)N[C@H](C(=O)N[C@@H](CCCNC(=N)N)C(=O)N[C@@H](CCCNC(=N)N)C(N)=O)[C@@H](C)CC [compound 37, C12-IRR-NH2] (HELM PEPTIDE1{[CCCCCCCCCCCC(=O)[*:2]].I.R.R.[am]}$$$$V2.0)
39.18 min	32 µg/mL (≈ 46.6 µM)	16 µg/mL (≈ 23.3 µM)	64 µg/mL (≈ 93.2 µM)	32 µg/mL (≈ 46.6 µM)	116.28 (±1.77) µg/mL	16 µg/mL (≈ 23.3 µM)	256 µg/mL (≈ 373 µM)	64 µg/mL (≈ 93.2 µM)	>256 (-) µg/mL		CCCCCCCCCCCCCC(=O)N[C@@H](CC[S+](C)[O-])C(=O)N[C@@H](CCCNC(=N)N)C(=O)N[C@@H](CCCNC(=N)N)C(N)=O (some centres unmarked) [compound 54, C14-M(O)RR-NH2] (HELM PEPTIDE1{[CCCCCCCCCCCCCC(=O)[*:2]].[CS(=O)CC[C@H](N[*:1])C(=O)[*:2]].R.R.[am]}$$$$V2.0)
42.73 min	4 µg/mL (≈ 5.69 µM)	4 µg/mL (≈ 5.69 µM)	8 µg/mL (≈ 11.4 µM)	4 µg/mL (≈ 5.69 µM)	46.52 (±5.24) µg/mL	4 µg/mL (≈ 5.69 µM)	32 µg/mL (≈ 45.5 µM)	32 µg/mL (≈ 45.5 µM)	64 µg/mL (≈ 91 µM)		CCCCCCCCCCCCCC(=O)N[C@@H](Cc1ccc(O)cc1)C(=O)N[C@@H](CCCNC(=N)N)C(=O)N[C@@H](CCCNC(=N)N)C(N)=O [compound 102, C14-YRR-NH2] (HELM PEPTIDE1{[CCCCCCCCCCCCCC(=O)[*:2]].Y.R.R.[am]}$$$$V2.0)
45.65 min	4 µg/mL (≈ 6.13 µM)	4 µg/mL (≈ 6.13 µM)	4 µg/mL (≈ 6.13 µM)	4 µg/mL (≈ 6.13 µM)	78.92 (±4.38) µg/mL	4 µg/mL (≈ 6.13 µM)	64 µg/mL (≈ 98 µM)	64 µg/mL (≈ 98 µM)	64 µg/mL (≈ 98 µM)	45.650 min	CCCCCCCCCCCCCC(=O)N[C@H](C(=O)N[C@@H](CCCNC(=N)N)C(=O)N[C@@H](CCCNC(=N)N)C(N)=O)[C@@H](C)CC [compound 38, C14-IRR-NH2] (HELM PEPTIDE1{[CCCCCCCCCCCCCC(=O)[*:2]].I.R.R.[am]}$$$$V2.0)
34.31 min	16 (>16) µg/mL	16 (>16) µg/mL	32 µg/mL (≈ 47.8 µM)	32 µg/mL (≈ 47.8 µM)	>256 µg/mL	16 (>16) µg/mL	>256 (-) µg/mL	64 µg/mL (≈ 95.5 µM)	>256 (-) µg/mL		CCCCCCCCCC(=O)N[C@@H](Cc1c[nH]c2ccccc12)C(=O)N[C@@H](CCCNC(=N)N)C(=O)N[C@@H](CCCNC(=N)N)C(N)=O [compound 96, C10-WRR-NH2] (HELM PEPTIDE1{[CCCCCCCCCC(=O)[*:2]].W.R.R.[am]}$$$$V2.0)
44.53 min	4 µg/mL (≈ 6.26 µM)	4 µg/mL (≈ 6.26 µM)	8 µg/mL (≈ 12.5 µM)	4 µg/mL (≈ 6.26 µM)	42.04 (±1.38) µg/mL	4 µg/mL (≈ 6.26 µM)	128 µg/mL (≈ 200 µM)	64 µg/mL (≈ 100 µM)	128 µg/mL (≈ 200 µM)		CCCCCCCCCCCCCC(=O)N[C@@H](CCC)C(=O)N[C@@H](CCCNC(=N)N)C(=O)N[C@@H](CCCNC(=N)N)C(N)=O [compound 70, C14-NvaRR-NH2] (HELM PEPTIDE1{[CCCCCCCCCCCCCC(=O)[*:2]].[Nva].R.R.[am]}$$$$V2.0)
37.95 min	8 µg/mL (≈ 12.4 µM)	16 µg/mL (≈ 24.9 µM)	32 µg/mL (≈ 49.8 µM)	32 µg/mL (≈ 49.8 µM)	206.50 (±9.14) µg/mL	16 µg/mL (≈ 24.9 µM)	256 µg/mL (≈ 398 µM)	64 µg/mL (≈ 99.5 µM)	256 µg/mL (≈ 398 µM)		CCCCCCCCCCCC(=O)N[C@@H](CCSC)C(=O)N[C@@H](CCCNC(=N)N)C(=O)N[C@@H](CCCNC(=N)N)C(N)=O [compound 49, C12-MRR-NH2] (HELM PEPTIDE1{[CCCCCCCCCCCC(=O)[*:2]].M.R.R.[am]}$$$$V2.0)
40.92 min	8 µg/mL (≈ 13.1 µM)	16 µg/mL (≈ 26.2 µM)	32 µg/mL (≈ 52.4 µM)	16 µg/mL (≈ 26.2 µM)	41.08 (±0.62) µg/mL	8 µg/mL (≈ 13.1 µM)	256 µg/mL (≈ 419 µM)	32 µg/mL (≈ 52.4 µM)	256 µg/mL (≈ 419 µM)		CCCCCCCCCCCCCC(=O)N[C@@H](C)C(=O)N[C@@H](CCCNC(=N)N)C(=O)N[C@@H](CCCNC(=N)N)C(N)=O [compound 10, C14-ARR-NH2] (HELM PEPTIDE1{[CCCCCCCCCCCCCC(=O)[*:2]].A.R.R.[am]}$$$$V2.0)
30.00 min	16 (>16) µg/mL	32 µg/mL (≈ 47.9 µM)	128 µg/mL (≈ 192 µM)	128 µg/mL (≈ 192 µM)	>256 µg/mL	16 (>16) µg/mL	>256 (-) µg/mL	256 µg/mL (≈ 383 µM)	>256 (-) µg/mL		CCCCCCCCCCCC(=O)N[C@@H](CCCNC(=N)N)C(=O)N[C@@H](CCCNC(=N)N)C(=O)N[C@@H](CCCNC(=N)N)C(N)=O [compound 81, C12-RRR-NH2] (HELM PEPTIDE1{[CCCCCCCCCCCC(=O)[*:2]].R.R.R.[am]}$$$$V2.0)
